Experimental data reported in patent US20250136574A1, “SELECTIVE AGENTS TARGETING MYCOBACTERIUM TUBERCULOSIS” (priority 2022, published 2025).
Several values for one entry are separate records, joined by “and”; a condition that tells them apart may be missing. Identical values can stand only once.

system: wild-type (WT) Mtb; assay: not given; assay type: cell-based, Mycobacterium tuberculosis; conditions: not given

Compound | IC50 [µM]
CCCCCCC#Cc1cncc(-c2nnc(SCc3cccc(Cl)c3)n2C)c1 [drawing 64 R = Cl] | 15
CCCCCCC#Cc1cncc(-c2nnc(Sc3ccc([N+](=O)[O-])c4nonc34)n2C)c1 | 27
CCCCCCC#Cc1cncc(-c2nnc(SCc3ncc([N+](=O)[O-])n3C)n2C)c1 | 94
CCCCCCC#Cc1cncc(-c2nnc(SCCn3c([N+](=O)[O-])cnc3C)n2C)c1 [drawing 58] | 22
CCCCCCC#Cc1cncc(-c2nnc(SC)n2C)c1 | 48
Cn1c(SCc2ccc(Cl)cc2)nnc1-c1cccnc1 | > 200
Cn1c(SCc2ccc(Cl)cc2)nnc1-c1cncc(Br)c1 | > 200
CCCCCCC#Cc1cccc(-c2nnc(SCc3ccc(Cl)cc3)n2C)c1 [drawing 84] | 8.5
Cn1c(SCc2ccc(Cl)cc2)nnc1-c1cncc(C#Cc2ccccc2)c1 [drawing 88] | 4
CCCCCCC#Cc1cncc(-c2nnc(SCc3cc(C(F)(F)F)cc(C(F)(F)F)c3)n2C)c1 | > 200
CCCCCCC#Cc1cncc(-c2nnc(SCc3ccc(C#N)cc3)n2C)c1 [drawing 55 R = CN] | 8.9
CCCCCCC#Cc1ccc(-c2nnc(SCc3ccc(Cl)cc3)n2C)cn1 | > 200
CCCCCCC#Cc1cncc(-c2nnc(SCc3ccc(-c4ccccc4)cc3)n2C)c1 [drawing 55 R = Ph] | 197
CCCCCCC#Cc1cncc(-c2nnc(SCc3ccc(OC)cc3)n2C)c1 [drawing 55 R = MeO] | 8.7
CCCCCCC#Cc1cncc(-c2nnc(SCc3ccc(Cl)cc3)n2C)c1 [drawing 51] | 5.3

same assay, conditions: text b333-b334; MABA

Compound | antimycobacterial activity (in words)
CCCCCCC#Cc1cncc(-c2nnc(SCc3ccc([N+](=O)[O-])o3)n2C)c1 [nitrofuran bearing analog] | most potent

same assay, conditions: text b333; MABA

Compound | antimycobacterial activity [µM]
CCCCCCC#Cc1cncc(-c2nnc(SCc3cc([N+](=O)[O-])cc([N+](=O)[O-])c3)n2C)c1 [3,5-dinitrobenzyl analog] | 0.5

system: Vero TMPRSS2 cells; assay: Cytotoxicity at single concentration, CellTiter-Glo ATP quantitation; assay type: cell-based, African Green Monkey; conditions: 50 uM, 72 hours
Protocol: Cytotoxicity assays were conducted to measure toxicity of compounds at single concentration in Vero TMPRSS2 cells by using quantitation of ATP to indicate metabolically active cells. Vero cells (derived from African Green Monkey kidney epithelial tissue) were grown in Dulbecco's Modified Eagle Medium (DMEM) supplemented with 10% fetal bovine serum (FBS), 10 mM HEPES buffered saline, and 2 mM L-glutamine. 5,000 cells per well were seeded into a 96-well plate containing two-fold titrations of compounds. The concentration of DMSO was maintained at 0.5% for all wells to avoid toxicity. The plates were incubated for 72 hours, at which point they were acclimatized to room temperature for 30 minutes. 25 μL of the substrate/buffer solution from the Promega CellTiter-Glo Luminescent Cell Viability Assay kit was added to each well. The plates were shaken at a low orbital speed for 3 minutes and let rest at room temperature for 10 minutes, after which luminescence was measured using a BioTek Synergy H1 Microplate Reader H1M. The positive control was defined as wells containing cells without compounds.
Percent viability was calculated as follows: […]

Compound | % Cell Viability Average | % Cell Viability Replicate 1 | % Cell Viability Replicate 2
CO[C@H]1[C@H](O[C@H]([C@H]2O[C@@H](n3ccc(=O)[nH]c3=O)[C@H](O)[C@@H]2O)[C@H](NCCCNC(=O)[C@H](CC(C)C)NC(=O)[C@@H](NC(=O)N[C@H](C(=O)O)C(C)C)[C@@H]2CCN=C(N)N2)C(=O)O)O[C@H](CN)[C@H]1O [Muraymycin D1, reference compound] | 92.38% and 91.22% and 89.63% | 93.83% and 94.27% and 87.87% | 90.92% and 88.18% and 91.39%
CCC(CC)COC(=O)[C@H](C)N[P@](=O)(OC[C@H]1O[C@@](C#N)(c2ccc3c(N)ncnn23)[C@H](O)[C@@H]1O)Oc1ccccc1 [remdesivir, reference compound] | 94.25% and 93.47% and 89.22% | 94.32% and 91.48% and 89.25% | 94.19% and 95.46% and 89.19%
Capuramycin B [reference compound] | 92.07% and 91.55% and 94.73% | 90.49% and 90.38% and 96.50% | 93.64% and 92.73% and 92.96%

same assay, conditions: 100 uM, 72 hours

Compound | % Cell Viability Average [%] | % Cell Viability Replicate 1 [%] | % Cell Viability Replicate 2 [%]
CCCCCCC#Cc1cncc(-c2nnc(SCc3cccc([N+](=O)[O-])c3)n2C)c1 | 26.47 | 26.28 | 26.66
CCCCCCC#Cc1cncc(-c2nnc(SCc3ccc(Cl)c(Cl)c3)n2C)c1 [drawing 111] | 18.98 | 19.98 | 17.98
CCCCCCC#Cc1cncc(-c2nnc(SCc3ccc(Cl)cc3)n2C)c1 [drawing 100] | 54.05 | 53.54 | 54.56
CCCCCCC#Cc1cncc(-c2nnc(SCc3ccc(Cl)cc3)n2C)c1 [drawing 116] | 1.67 | 1.57 | 1.76
CCCCCCC#Cc1cncc(-c2nnc(SCCCn3ccc(=O)[nH]c3=O)n2C)c1 | 14.14 | 9.07 | 19.21
CCCCCCC#Cc1cncc(-c2nnc(SCc3ccc(OC)cc3)n2C)c1 [drawing 99] | 54.63 | 60.30 | 48.95
CCCCCCC#Cc1cncc(-c2nnc(SCc3ccc(F)cc3)n2C)c1 [drawing 110] | 19.61 | 32.71 | 6.50
CCCCCCC#Cc1cncc(-c2nnc(SCc3ccc(Cl)cc3)n2C2CC2)c1 [drawing 107] | 33.69 | 32.40 | 34.99
CCCCCCC#Cc1cncc(-c2nnc(SCc3ccc(Cl)cc3)n2C)c1 [drawing 117] | 1.56 | 1.41 | 1.70
CCCCCCC#Cc1cncc(-c2nnc(S)n2C)c1 | 0.76 | 0.70 | 0.82
CCCCCCC#Cc1cncc(-c2nnc(SCc3ccc(Cl)cc3)n2C)c1 [drawing 102] | 42.78 | 47.04 | 38.53
C#Cc1cncc(-c2nnc(SCc3ccc(Cl)cc3)n2C)c1 [drawing 113] | 3.10 | 3.02 | 3.18
CCCCCCC#Cc1cncc(-c2nnc(SC[C@H]3O[C@@H](n4ccc(=O)[nH]c4=O)[C@@H]4OC(C)(C)O[C@@H]43)n2C)c1 | 1.10 | 1.02 | 1.19
CCCCCCC#Cc1cncc(-c2nnc(SCc3ccc(C(F)(F)F)cc3)n2C)c1 [drawing 96] | 70.35 | 74.34 | 66.36
CCCCCCC#Cc1cncc(-c2nnc(SCCn3c([N+](=O)[O-])cnc3C)n2C)c1 [drawing 121] | 1.19 | 1.17 | 1.20
CCCCCCC#Cc1cncc(-c2nnc(SCc3ccc([N+](=O)[O-])o3)n2C)c1 [drawing 120] | 1.31 | 1.30 | 1.31
CCCCCCC#Cc1cncc(-c2nnc(SCc3ccc(Cl)cc3)n2C)c1 [drawing 114] | 2.36 | 2.25 | 2.47
CCCCCCC#Cc1cncc(-c2nnc(SCc3ccc(C#N)cc3)n2C)c1 [drawing 98] | 66.33 | 75.34 | 57.31
CCCCCCC#Cc1cncc(-c2nnc(SCc3ccc(Br)cc3)n2C)c1 [drawing 103] | 42.17 | 42.94 | 41.40
CCCCCCC#Cc1cccc(-c2nnc(SCc3ccc(Cl)cc3)n2C)c1 [drawing 115] | 1.77 | 1.97 | 1.58
CCCCCCC#Cc1cncc(-c2nnc(SCc3ccc(C)cc3)n2C)c1 [drawing 109] | 20.46 | 20.58 | 20.35
CCCCCCC#Cc1cncc(-c2nnc(SCc3ccc([N+](=O)[O-])cc3)n2C)c1 [drawing 106] | 34.59 | 39.61 | 29.56

same assay, conditions: 125 uM, 72 hours

Compound | % Cell Viability Average [%] | % Cell Viability Replicate 1 [%] | % Cell Viability Replicate 2 [%]
CCCCCCC#Cc1cncc(-c2nnc(SCc3cccc(Cl)c3)n2C)c1 [drawing 118] | 1.53 | 2.13 | 0.94
CCCCCCC#Cc1cncc(-c2nnc(SCc3ccc(Cl)cc3)[nH]2)c1 [drawing 97] | 67.98 | 68.39 | 67.58
CCCCCCC#Cc1cncc(-c2nnc(SCc3cc(F)cc(F)c3)n2C)c1 [drawing 123] | 0.96 | 0.98 | 0.94
CCCCCCC#Cc1cncc(C(=O)NN)c1 | 36.66 | 34.62 | 38.69
CCCCCCC#Cc1cncc(-c2nnc(SCc3cc([N+](=O)[O-])cc([N+](=O)[O-])c3)n2C)c1 [drawing 104] | 41.70 | 42.56 | 40.84
CCCCCCC#Cc1cncc(-c2nnc(SCc3ccc(Cl)c(F)c3)n2C)c1 [drawing 101] | 50.78 | 49.91 | 51.65
CCCCCCC#Cc1cncc(-c2nnc(SCc3ccc(Cl)cc3)[nH]2)c1 [drawing 119] | 1.41 | 1.43 | 1.38

same assay, conditions: 72 hours

Compound | % Cell Viability Average | % Cell Viability Replicate 1 | % Cell Viability Replicate 2
[H]/N=C(/N)N[C@H]1[C@H](O)[C@@H](O)[C@H](O[C@@H]2O[C@@H](C)[C@](O)(C=O)[C@H]2O[C@@H]2O[C@@H](CO)[C@H](O)[C@@H](O)[C@@H]2NC)[C@@H](N/C(N)=N\[H])[C@@H]1O [Streptomycin, reference compound] | 110.98% and 106.86% and 105.48% | 112.83% and 110.01% and 108.58% | 109.14% and 103.70% and 102.37%
